Data on 16 compounds can be found in ChEMBL document CHEMBL1201862, “PubChem BioAssay data set” (2004).

The target of experiment [1] is T1, Short transient receptor potential channel 4 (Mus musculus, UniProt Q9QUQ5).
T1 sequence (Q9QUQ5 whole entry): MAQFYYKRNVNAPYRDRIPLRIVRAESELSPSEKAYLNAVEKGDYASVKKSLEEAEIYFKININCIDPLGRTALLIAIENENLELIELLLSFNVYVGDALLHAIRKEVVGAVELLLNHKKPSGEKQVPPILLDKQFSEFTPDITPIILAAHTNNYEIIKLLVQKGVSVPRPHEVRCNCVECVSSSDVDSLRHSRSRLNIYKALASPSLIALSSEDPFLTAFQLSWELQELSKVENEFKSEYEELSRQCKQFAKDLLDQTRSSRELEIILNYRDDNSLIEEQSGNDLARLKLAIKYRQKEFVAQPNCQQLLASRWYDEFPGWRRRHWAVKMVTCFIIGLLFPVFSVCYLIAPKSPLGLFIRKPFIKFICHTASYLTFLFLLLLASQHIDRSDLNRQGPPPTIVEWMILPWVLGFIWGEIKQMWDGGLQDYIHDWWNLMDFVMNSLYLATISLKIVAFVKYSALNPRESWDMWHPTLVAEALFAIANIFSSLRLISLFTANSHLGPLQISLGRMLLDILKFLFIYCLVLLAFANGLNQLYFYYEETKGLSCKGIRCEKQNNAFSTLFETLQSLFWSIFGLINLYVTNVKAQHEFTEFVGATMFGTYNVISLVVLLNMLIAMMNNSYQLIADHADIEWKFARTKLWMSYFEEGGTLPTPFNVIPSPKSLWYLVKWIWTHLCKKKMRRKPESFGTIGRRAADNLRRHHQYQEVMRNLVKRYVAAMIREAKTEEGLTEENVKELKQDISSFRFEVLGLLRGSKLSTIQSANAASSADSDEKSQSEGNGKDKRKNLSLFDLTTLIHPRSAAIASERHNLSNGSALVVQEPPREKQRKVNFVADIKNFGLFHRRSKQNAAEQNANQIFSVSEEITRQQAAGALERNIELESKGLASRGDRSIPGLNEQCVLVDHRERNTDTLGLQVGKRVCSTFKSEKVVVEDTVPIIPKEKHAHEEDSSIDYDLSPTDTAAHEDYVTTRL
Description: block of DAMGO-driven TRPC4 calcium entry – cell-based, HEK293 TRPC4/mu-opioid, Fluo-4 calcium, dose response (AID 434942).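 Further: potency of inhibitors blocking the TRPC4 calcium response.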 The class given is functional.

Experiment [2] has as its target T1, Short transient receptor potential channel 4. Description: calcium entry via TRPC4 opening agents – cell-based, HEK293 TRPC4/mu-opioid, Fluo-4 calcium, dose response (AID 434937). It is filed as functional.
The next experiment deals with Cytochrome P450 3A4 (Homo sapiens, UniProt P08684). Particulars: Potency.
Sequence of Cytochrome P450 3A4 (P08684 whole entry): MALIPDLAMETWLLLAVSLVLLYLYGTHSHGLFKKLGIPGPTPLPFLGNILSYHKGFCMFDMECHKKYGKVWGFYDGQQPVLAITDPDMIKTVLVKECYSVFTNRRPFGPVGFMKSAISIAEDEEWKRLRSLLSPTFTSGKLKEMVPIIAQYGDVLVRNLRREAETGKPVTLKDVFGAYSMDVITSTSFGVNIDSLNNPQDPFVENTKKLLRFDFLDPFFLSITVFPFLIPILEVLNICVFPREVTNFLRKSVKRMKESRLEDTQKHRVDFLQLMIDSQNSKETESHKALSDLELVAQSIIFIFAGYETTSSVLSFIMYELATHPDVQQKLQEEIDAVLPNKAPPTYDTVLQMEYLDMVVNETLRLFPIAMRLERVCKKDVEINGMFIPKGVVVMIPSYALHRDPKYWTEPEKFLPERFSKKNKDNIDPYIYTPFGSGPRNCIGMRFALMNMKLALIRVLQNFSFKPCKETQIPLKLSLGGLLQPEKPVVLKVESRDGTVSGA
Experiment [3] concerns the target Glucose-6-phosphate 1-dehydrogenase (Homo sapiens, UniProt P11413). The experiment is described as follows: inhibition of Homo sapiens G6PD, dose series – biochemical, fluorescence, selectivity assay for P. falciparum G6PD inhibitor project, dose response (AID 504792). It is filed as functional.
Experiment [4] addresses DNA dC->dU-editing enzyme APOBEC-3G (Homo sapiens, UniProt Q9HC16). Description: Dose Response confirmation of small molecule APOBEC3G DNA Deaminase Inhibitors via a fluorescence-based single-stranded DNA deaminase assay. [Related pubchem assays (depositor defined):AID493012, AID493028]. It is filed as functional.
In experiment [5] the target is T2, Heat shock factor protein 1 (Mus musculus, UniProt P38532).
T2 sequence (P38532 whole entry): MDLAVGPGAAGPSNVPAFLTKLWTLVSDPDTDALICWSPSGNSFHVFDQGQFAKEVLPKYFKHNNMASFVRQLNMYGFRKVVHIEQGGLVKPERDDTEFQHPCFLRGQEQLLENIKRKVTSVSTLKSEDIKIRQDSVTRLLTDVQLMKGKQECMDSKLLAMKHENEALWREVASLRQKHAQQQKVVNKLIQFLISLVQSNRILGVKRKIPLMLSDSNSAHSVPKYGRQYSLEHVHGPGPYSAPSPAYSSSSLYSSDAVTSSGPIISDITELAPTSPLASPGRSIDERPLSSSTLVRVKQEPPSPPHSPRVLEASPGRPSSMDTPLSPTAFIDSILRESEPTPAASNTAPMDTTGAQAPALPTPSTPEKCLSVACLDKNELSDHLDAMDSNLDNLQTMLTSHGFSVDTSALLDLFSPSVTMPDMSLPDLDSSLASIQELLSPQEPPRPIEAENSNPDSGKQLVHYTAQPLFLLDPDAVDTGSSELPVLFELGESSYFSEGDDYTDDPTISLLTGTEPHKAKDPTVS
Description: decrease of HSF1-responsive luciferase luminescence – cell-based, NIH3T3, dose retest, confirmation (AID 2382).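 Further: NIH3T3 fibroblasts with HSF1-driven luciferase reporter stressed by proteasome inhibitor MG132; luminescence from HSF1-driven luciferase expression after 8 hours of MG132 stress.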 The class given is functional.

A short description of experiment [6]: THP-1 cell cytotoxicity, dose response, cytotoxicity control for non-replicating M. tuberculosis project (AID 489025). The class given is functional.
Experiment [7] is described as follows: Vero E6 cell cytotoxicity, dose response, cytotoxicity control for non-replicating M. tuberculosis project, secondary assay (AID 492998). The following applies: Vero C1008. It is filed as functional, VeroE6.
The nature of experiment [8]: cells. It is filed as functional.
Experiment [9] concerns the target FAD-linked sulfhydryl oxidase ALR (Homo sapiens, UniProt P55789). The experiment is described as follows: ALR-catalysed DTT oxidation blockers – biochemical, H2O2 detection, luminescence, cherry-pick, dose response (AID 493248).
The target in experiment [10] is T3, Rac GTPase-activating protein 1 (Homo sapiens, UniProt Q9H0H5).
T3 sequence (Q9H0H5 whole entry): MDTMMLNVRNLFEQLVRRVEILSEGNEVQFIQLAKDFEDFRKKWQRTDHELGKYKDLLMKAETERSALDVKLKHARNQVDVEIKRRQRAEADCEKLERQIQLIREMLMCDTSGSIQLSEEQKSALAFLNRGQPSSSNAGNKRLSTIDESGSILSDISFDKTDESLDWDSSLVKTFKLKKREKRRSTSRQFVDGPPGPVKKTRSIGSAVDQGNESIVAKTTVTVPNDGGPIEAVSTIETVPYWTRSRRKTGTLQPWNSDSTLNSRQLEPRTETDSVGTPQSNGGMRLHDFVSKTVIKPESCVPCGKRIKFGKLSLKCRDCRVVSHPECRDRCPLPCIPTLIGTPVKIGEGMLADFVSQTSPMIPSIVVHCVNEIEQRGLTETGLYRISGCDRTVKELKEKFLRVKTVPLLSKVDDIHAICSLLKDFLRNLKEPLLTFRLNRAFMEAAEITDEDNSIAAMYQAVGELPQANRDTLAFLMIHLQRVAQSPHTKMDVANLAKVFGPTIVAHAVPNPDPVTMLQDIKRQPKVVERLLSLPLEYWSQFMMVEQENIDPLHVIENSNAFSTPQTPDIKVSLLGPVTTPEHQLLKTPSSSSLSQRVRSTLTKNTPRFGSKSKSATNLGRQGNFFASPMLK
Description: blockers of MgcRacGAP-driven Rac1 GTP hydrolysis – biochemical, ADP Hunter fluorescence, primary and confirmatory, confirmation (AID 624330). The class given is functional.

The nature of experiment [11]: luciferase reporter signal suppression in cells – H4 neuroglioma cells, luminescence, dose response (AID 1990). It is filed as functional, cell-based. In general terms: In a reporter assay the amount or activity of a reporter protein is the signal.
Experiment [12] in a line: cells. The class given is functional, cell-based.
The nature of experiment [13]: Luminescence Cell-Based Dose Response HTS to Identify Inhibitors of 5'UTR Stem-Loop Driven Prion Protein mRNA Translation in H4 Neuroglioblastoma Cells. [Related pubchem assays: 1827 (Project Summary), 1813 (Primary HTS)]. It is filed as functional.
Experiment [14] can be described thus: alpha-synuclein stem-loop luciferase translation blockers – H4 neuroglioma cells, luminescence, confirmation (AID 1988). It is filed as functional, cell-based.
Another experiment has as its target Large T antigen (Simian virus 40, UniProt P03070). It is filed as functional, Betapolyomavirus macacae.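 Further: Confirmatory-stage PubChem screen for compounds that inhibit SV40 T antigen.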
Experiment [15] in a line: cells. The class given is functional, cell-based. The source holds these as a separate data set.
In the next experiment the target is Nonstructural protein 1 (Influenza A virus, UniProt Q194T2). It is filed as functional, Influenza A virus (A/California/07/2009(H1N1)).
Sequence of Nonstructural protein 1 (Q194T2 whole entry): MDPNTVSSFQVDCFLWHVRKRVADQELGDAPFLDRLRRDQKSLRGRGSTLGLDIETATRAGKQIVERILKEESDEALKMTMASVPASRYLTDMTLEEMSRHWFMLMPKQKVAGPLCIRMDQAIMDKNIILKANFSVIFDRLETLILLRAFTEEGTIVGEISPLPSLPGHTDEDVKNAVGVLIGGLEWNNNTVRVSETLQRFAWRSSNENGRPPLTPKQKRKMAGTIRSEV
The nature of experiment [16]: reduced cellular PGC1a acetyl-lysine signal – cell-based, cherry-picked samples, dose response (AID 720514).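 Further: potency may reflect raised or lowered acetylation signal.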 It is filed as functional.
Experiment [17] can be described thus: P. falciparum Dd2 growth inhibitors, dose response, SYBR Green, cherry-picked samples (AID 1159567). It is filed as functional, cell-based.
A short description of experiment [18]: toxicity to human hepatoma HepG2 cells – cell-based, cherry-picked samples, cytotoxicity control, dose response (AID 1159577). The class given is functional.
The nature of experiment [19]: growth inhibition of yeast DHODH-expressing 3D7 parasites – SYBR Green, dry powder samples, dose response (AID 1159570).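 Further: parasite growth measured after 72 hours of compound exposure.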 The class given is functional, cell-based.
A short description of experiment [20]: toxicity to human HepG2 hepatoma cells – cell-based, plate reader, dry powder samples, cytotoxicity control, dose response (AID 1159569).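 Further: inhibitor potency with signal falling toward the positive control level.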 The class given is functional.
The nature of experiment [21]: Dd2 malaria parasite growth inhibition potency – SYBR Green, dry powder samples, dose response (AID 1159566).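 Further: potency for growth inhibition with lower SYBR green DNA signal.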 The class given is functional, cell-based.
Experiment [22] is described as follows: growth inhibition of PfATP4-mutant resistant parasites – NITD609-resistant line, SYBR Green, dry powder, dose response (AID 1159571).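 Further: parasites synchronized at ring stage by sorbitol before testing.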 It is filed as functional, cell-based.

Each structure is given as a SMILES string. Calls of active or inactive are those of the source.

Sequence of FAD-linked sulfhydryl oxidase ALR (P55789 whole entry): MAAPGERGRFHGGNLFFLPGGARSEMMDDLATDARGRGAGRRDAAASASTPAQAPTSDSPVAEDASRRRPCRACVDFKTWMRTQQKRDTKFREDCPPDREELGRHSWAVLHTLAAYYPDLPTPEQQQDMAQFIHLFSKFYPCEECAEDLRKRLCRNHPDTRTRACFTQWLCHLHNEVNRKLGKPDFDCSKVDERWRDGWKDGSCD
Sequence of DNA dC->dU-editing enzyme APOBEC-3G (Q9HC16 whole entry): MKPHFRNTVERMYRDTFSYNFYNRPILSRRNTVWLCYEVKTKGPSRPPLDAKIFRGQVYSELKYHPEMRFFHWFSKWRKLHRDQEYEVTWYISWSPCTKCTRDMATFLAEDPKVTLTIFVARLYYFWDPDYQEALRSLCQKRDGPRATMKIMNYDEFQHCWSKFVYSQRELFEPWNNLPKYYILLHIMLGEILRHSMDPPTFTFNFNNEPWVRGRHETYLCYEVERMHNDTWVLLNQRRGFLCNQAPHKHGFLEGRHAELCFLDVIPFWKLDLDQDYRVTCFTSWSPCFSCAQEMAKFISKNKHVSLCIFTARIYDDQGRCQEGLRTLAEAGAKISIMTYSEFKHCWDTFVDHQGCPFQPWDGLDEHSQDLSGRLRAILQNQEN
Sequence of Large T antigen (P03070 whole entry): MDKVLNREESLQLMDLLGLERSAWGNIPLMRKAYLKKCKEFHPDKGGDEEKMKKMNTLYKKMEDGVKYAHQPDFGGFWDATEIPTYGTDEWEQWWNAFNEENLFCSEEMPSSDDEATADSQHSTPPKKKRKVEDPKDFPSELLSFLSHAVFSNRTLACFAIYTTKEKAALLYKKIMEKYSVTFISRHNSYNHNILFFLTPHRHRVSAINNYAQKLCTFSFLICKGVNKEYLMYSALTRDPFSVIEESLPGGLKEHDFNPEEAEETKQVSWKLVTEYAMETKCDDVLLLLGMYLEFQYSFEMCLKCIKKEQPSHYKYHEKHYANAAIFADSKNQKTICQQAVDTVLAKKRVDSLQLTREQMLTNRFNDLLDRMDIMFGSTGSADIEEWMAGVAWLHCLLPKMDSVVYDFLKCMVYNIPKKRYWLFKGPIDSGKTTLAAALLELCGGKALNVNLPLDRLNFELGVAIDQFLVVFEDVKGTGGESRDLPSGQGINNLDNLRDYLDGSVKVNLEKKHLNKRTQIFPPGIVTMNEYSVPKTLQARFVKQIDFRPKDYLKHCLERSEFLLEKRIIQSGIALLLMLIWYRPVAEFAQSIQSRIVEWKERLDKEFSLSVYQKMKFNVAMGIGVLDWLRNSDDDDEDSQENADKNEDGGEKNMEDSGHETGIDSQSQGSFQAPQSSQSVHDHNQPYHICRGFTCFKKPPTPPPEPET
Sequence of Glucose-6-phosphate 1-dehydrogenase (P11413 whole entry): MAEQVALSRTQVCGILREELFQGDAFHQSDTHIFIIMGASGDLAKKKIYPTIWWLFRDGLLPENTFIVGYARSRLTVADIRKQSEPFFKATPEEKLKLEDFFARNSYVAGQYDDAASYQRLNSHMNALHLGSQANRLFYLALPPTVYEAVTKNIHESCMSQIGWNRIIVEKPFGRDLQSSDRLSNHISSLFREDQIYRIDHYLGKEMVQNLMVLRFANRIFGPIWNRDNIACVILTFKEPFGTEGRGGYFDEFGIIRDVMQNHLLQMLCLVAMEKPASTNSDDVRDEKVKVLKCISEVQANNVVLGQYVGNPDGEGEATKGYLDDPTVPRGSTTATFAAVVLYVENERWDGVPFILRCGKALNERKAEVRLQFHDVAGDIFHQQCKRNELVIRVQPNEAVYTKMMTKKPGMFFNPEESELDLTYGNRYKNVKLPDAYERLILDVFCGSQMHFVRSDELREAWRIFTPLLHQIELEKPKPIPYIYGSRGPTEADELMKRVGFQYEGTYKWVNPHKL

Usually EC50 stands for the concentration that produces a half-maximal response. For the compound `O=c1c2ccccc2[nH]c(=S)n1Cc1cccnc1`, the 50% effective concentration (EC50) in experiment [1] was 3.35 µM (active); in experiment [2], 2.66 µM (active).

Broadly, the AC50 is the concentration at which the activity in the assay is half-maximal. As for `CC1C(=O)OC2C1CC[C@@]1(C)C=CC(=O)[C@@]3(C)O[C@@]213` (some centres not stated), on Cytochrome P450 3A4, the AC50 is 39.8 µM (inconclusive).

What is called IC50 is the concentration that inhibits the measured activity by half. On to `COC(=O)[C@H](CCSC)NC(=O)c1cc2c3ccccc3nc-2c[nH]1`, for which the IC50 in experiment [3] is > 80 µM (inactive); in [4], 59.6 µM (active).

Consider `Cn1c(N)c(C(=O)COC(=O)c2cc(C(F)(F)F)nc3ccccc23)c(=O)n(Cc2ccccc2)c1=O`, for which the AC50 at Cytochrome P450 3A4 was 15.8 µM (inconclusive).

What is called CC50 is the concentration that lowers cell viability or growth by half. Turning to `COc1ccccc1NC(=O)c1ccc([N+](=O)[O-])o1`, in experiment [5], the EC50 is listed as > 195 µM (not active). Also, the CC50 is 17.5 µM (active) in experiment [6] and 5.96 µM (active) in [7]. Also, the IC50 in the experiment “cells [8]” was 9.55 µM (active).

Turning to `O=S(=O)(N=S1CC=CCN1S(=O)(=O)c1ccccc1)c1ccccc1` (configuration not stated), the IC50 was 2.32 µM (active) in experiment [4] and 105 µM (active) in experiment [10]. In addition, the AC50 in experiment [9] was 2.19 µM (active).

Regarding `COc1cccc(Cn2c(Oc3ccccc3)nc3c2c(=O)n(C)c(=O)n3C)c1`, the EC50 in experiment [1] is 7.5 µM (active).

On to `CN(CC(=O)NC1CCCc2ccccc21)C1CCCCC1` (configuration not stated), for which the EC50 in experiment [1] is 13.3 µM (active).

For the compound `Cc1ccccc1Nc1c(-c2ccccn2)nc2ccccn12`, the EC50 in experiment [11] is 11 µM (active); in “cells [12]”, 221 µM (active); in [13], 10.4 µM (active); in [14], 10.5 µM (active); in “cells [15]” it was > 350 µM (not active). In addition, the results for the IC50 at Large T antigen, at Nonstructural protein 1 and in the experiment “cells [8]” were < 0.39 µM (active), 14.7 µM (active) and 1.75 µM (active), respectively. Further, the CC50 in [6] was 13.7 µM (active); in experiment [7], 3.7 µM (active). Besides, in experiment [9], the AC50 was 1.37 µM (active).

For `O=C(N/N=C/c1cc([N+](=O)[O-])ccc1O)C12CC3CC(CC(C3)C1)C2`, the results for the CC50 in [6] and in [7] were 21 µM (active) and > 20 µM (active), respectively. Further, the IC50 in the experiment “cells [8]” is 16.3 µM (active).

With `Cc1ccc(-c2ccc([C@H]3[C@@H]4CN(C(=O)Nc5ccc(C(F)(F)F)cc5)C[C@H]3N4)cc2)cc1`, the AC50 in [16] was 9.39 µM (active); in experiment [17], 3.4 µM (active); in [18], 13.1 µM (active).

On to `C(=C\c1ccc([C@@H]2[C@@H]3CN(Cc4cccnc4)C[C@H]2N3)cc1)/c1ccccc1`, for which the AC50 in [17] was < 0.3 µM (active); in experiment [18], 10.8 µM (active).

Take `COc1ccc2c3c([nH]c2c1)[C@H](CO)N(Cc1ccc(Cl)cc1)CC31CCN(Cc2nccs2)CC1`: the AC50 was 1.22 µM (active) in experiment [19]; 25.8 µM (active) in experiment [20]; 1.22 µM (active) in experiment [17]; 0.781 µM (active) in experiment [21]; > 39 µM (inactive) in experiment [18]; 1.11 µM (active) in experiment [22].

Consider `O=C(Nc1ccccc1F)N1CCCCN2[C@@H](CO)[C@H](c3ccc(C#Cc4ccccc4)cc3)[C@@H]2C1`, for which the results for the AC50 in experiment [17] and in experiment [18] were 0.392 µM (active) and 10.3 µM (active), respectively.

`O=C(C1CCCC1)N1CC(=O)N2[C@H](C1)[C@@H](c1ccc(-c3cccnc3)cc1)[C@@H]2CO`: the AC50 in [19] is 2.97 µM (active); in [20], > 100 µM (inactive); in experiment [17] it was 1.06 µM (active); in experiment [21] it was 0.746 µM (active); in experiment [22], 1.52 µM (active).

For the compound `CCCN(C)C[C@@H]1Oc2cc(C#Cc3cccnc3)ccc2S(=O)(=O)N([C@H](C)CO)C[C@@H]1C`, the AC50 was 2.35 µM (active) in experiment [19]; > 100 µM (inactive) in experiment [20]; 2.09 µM (active) in [17]; 1.45 µM (active) in experiment [21]; 1.03 µM (active) in [22].
